Source: patent US12404244B2, “Pan-KIT kinase inhibitor having quinoline structure and application thereof” (Tarapeutics Science Inc., priority 2018, dated 2025)
Read-outs that look alike come from different tables or passages of the source.

Legend:
[1] = system: TEL-cKIT/T670I-BaF3 mouse tumor model; test: Tumor-grafted mouse model established with TEL-cKIT/T670I-BaF3 cells; type: in vivo; settings: oral, every day
Protocol: In this example Compound 1 and Compound 2 were respectively tested in TEL-cKIT/T670I-BaF3, TEL-cKIT/Y823D-BaF3, TEL-cKIT/D820G-BaF3 and GIST-T1-T670I mouse models.
Experimental protocols were as follows. • (1) Bal b/c female mice aged 4-6 weeks were purchased from Beijing Weitong Lihua Laboratory Animal Co., Ltd., and the mice were raised in an SPF laboratory. The drinking water and padding were sterilized by autoclaving. All operations on mice were conducted under aseptic conditions. • (2) About 5×10^6 TEL-cKIT/T670I-BaF3, TEL-cKIT/Y823D-BaF3, TEL-cKIT/D820G-BaF3 or GIST-T1-T670I cells were respectively injected subcutaneously onto the left back of all mice on Day 0. • (3) From Day 6, for the TEL-cKIT/T670I-BaF3 mouse model the corresponding mice were administrated orally every day with methylcellulose (HKI) as the vehicle (5 mice); with Compound 1 and Compound 2 at a dosage of 10 mg/kg, 20 mg/kg, 40 mg/kg, 100 mg/kg mouse weight (5 mice in each group); and with Sunitnib (purchased from MedChemExpress, China) at a dosage of 40 mg/kg mouse weight (5 mice). From day 6, for the TEL-cKIT/Y823D-BaF3 and TEL-cKIT/D820G-BaF3 mouse models the corresponding mice were administrated orally every day with methylcellulose (HKI) as the vehicle (5 mice); with Compound 1 and Compound 2 at a dosage of 40 mg/kg, 80 mg/kg mouse weight (5 mice in each group); and with Sunitnib (purchased from MedChemExpress, China) at a dosage of 40 mg/kg mouse weight (5 mice). From day 15, for the GIST-T1-T670I mouse model the corresponding mice were administrated orally every day with methylcellulose (HKI) as the vehicle (5 mice); with Compound 1 and Compound 2 at a dosage of 20 mg/kg, 40 mg/kg, 80 mg/kg mouse weight (5 mice in each group); and with Sunitnib at a dosage of 40 mg/kg mouse weight (5 mice). • (4) From day 6 (TEL-cKIT/T670I-BaF3, TEL-cKIT/Y823D-BaF3, TEL-cKIT/D820G-BaF3 mouse model) and From day 15 (GIST-T1-T670I mouse model), respectively, the length/width of the subcutaneous tumor were measured with a vernier caliper every day and the body weight of the mouse was recorded every day so as to determine the effects of Compound 1 and Compound 2 on the body weight and tumor size of the mice, respectively. • (5) The mice were sacrificed on Day 11 after administration for the TEL-cKIT/T670I-BaF3 mouse model, on Day 9 after administration for the TEL-cKIT/Y823D-BaF3 and TEL-cKIT/D820G-BaF3 mouse models, and on Day 28 after administration for the GIST-T1-T670I mouse model. The subcutaneous tumors were taken out, and the tumors were weighed and compared. • (6) The growth trend of subcutaneous tumors was calculated and the tumor size was calculated according to: length×width×width/2 mm^3.

[2] = system: TEL-KIT-BaF3 (stably expressing KIT wild-type kinase); test: Proliferation of TEL-KIT-BaF3 cells (CCK-8); type: cell-based, mouse; settings: Mus musculus, read-out: GI50 TEL-KIT-BaF3
Text: Compounds as provided herein were further evaluated for their inhibitory effects on proliferation of cancer cells by testing their effects on growth of cancer cells. In this example the following cells were used: primary mouse B cells BaF3 (purchased from ATCC), GIST-T1 cells of the human gastrointestinal stromal tumor cell line (expressing wild-type KIT gene) (purchased from Cosmo Bio Co., Ltd. (Japan)). The present lab further constructed and used the following: mouse Tel-Kit-BaF3 (stably expressing KIT wild-type kinase), mouse Tel-Kit/T670I-BaF3 (stably expressing KIT T670I mutant kinase), mouse Tel-Kit/V559A-BaF3 (stably expressing KIT V559A mutant kinase), mouse Tel-Kit/V559D-BaF3 (stably expressing KIT V559D mutant kinase), mouse Tel-Kit/V559G-BaF3 (stably expressing KIT V559G mutant kinase), mouse Tel-Kit/V560D-BaF3 (stably expressing KIT V560D mutant kinase), mouse Tel-Kit/L576P-BaF3 (stably expressing KIT L576P mutant kinase), mouse Tel-Kit/V654A-BaF3 (stably expressing KIT V654A mutant kinase), mouse Tel-Kit/V654A/V559D-BaF3 (stably expressing KIT V654A V559D mutant kinase), mouse Tel-Kit/T670E-BaF3 (stably expressing KIT T670E mutant kinase), mouse Tel-Kit/T670I/V559D-BaF3 (stably expressing KIT T670I V559D mutant kinase), mouse Tel-Kit/S709F-BaF3 (stably expressing KIT S709F mutant kinase), mouse Tel-Kit/D816E-BaF3 (stably expressing KIT D816E mutant kinase), mouse Tel-Kit/D816H-BaF3 (stably expressing KIT D816H mutant kinase), mouse Tel-Kit/D820E-BaF3 (stably expressing KIT D820E mutant kinase), mouse Tel-Kit/D820G-BaF3 (stably expressing KIT D820G mutant kinase), mouse Tel-Kit/D820Y-BaF3 (stably expressing KIT D820Y mutant kinase), mouse Tel-Kit/N822K-BaF3 (stably expressing KIT N822K mutant kinase), mouse Tel-Kit/Y823D-BaF3 (stably expressing KIT Y823D mutant kinase), mouse Tel-Kit/A829P-BaF3 (stably expressing KIT A829P mutant kinase), GIST-T1-T670I cells of the human gastrointestinal stromal tumor cell line (expressing KIT-T670I mutant gene). The above cell lines were constructed by: amplifying respectively the sequences of human KIT and various mutant kinase regions of KIT via PCR, inserting the fragments respectively into MSCV-Puro vectors having a N-terminal TEL fragment and/or a NPM fragment and/or a TPR fragment (purchased from Clontech), transfecting mouse BaF3 cells with the vectors by means of retrovirus to obtain stably transfected cells, removing the growth factor IL-3, and thereby eventually obtaining cell lines that depend on the transferred protein KIT or various mutants of KIT. The GIST-T1-T670I (expressing C-KIT-T670I mutant gene) cell line was constructed by our laboratory as follows: designing sgRNA that targeted a region around T670 of the KIT gene with CRISPR Design Tool (website: crispr.mit.edu, Zhang Feng Lab), cloning it into pSpCas9(BB)-2A-Puro vector; co-transfecting cells with the resultant vector and a single-stranded oligonucleotide having T670I site mutation that is near to T670, subjecting the resultant to antibiotics screening, followed by dilution, and monocellular culture in a 96-well plate; validating the site T670 of the cells by sequence detection via Sanger sequencing.
The cells after incubation were detected using CCK-8 (purchased from MedChem Express, Shanghai, China) cell viability assay kit (CCK-8 may be reduced by dehydrogenase in living cells to a highly water-soluble yellow formazan product, and the amount of the resultant formazan is proportional to the number of living cells), the number of living cells were quantified with a microplate reader, and GI50 of the compounds and the control compounds were calculated (the results shown in Table 2 and Table 3).

| GI50 ([2]; KIT wild-type, 72 hours, CCK-8) | SMILES | inhibitory effects against tumor in mice ([1]; 40 mg/kg) | tumor inhibition rate ([1]; 40 mg/kg) | influence on mice weight [1] | GI50 ([2]; 72 h) |
| --- | --- | --- | --- | --- | --- |
| 1 nM | COc1cc2nccc(Oc3ccc(NC(=O)Cc4ccc(Cl)c(C(F)(F)F)c4)cc3)c2cc1OC [Example 2, N-(4-((6,7-dimethoxyquinolin-4-yl)oxy)phenyl)-2-(4-chloro-3-(trifluoromethyl)phenyl)-acetamide] | excellent inhibitory effects against tumor in mice | ≥ 80% | without significant influence on mice weight | – |
| – | COc1cc2nccc(Oc3ccc(NC(=O)Cc4ccc(C)c(C(F)(F)F)c4)cc3)c2cc1OC [Example 1, N-(4-((6,7-dimethoxyquinolin-4-yl)oxy)phenyl)-2-(4-methyl-3-(trifluoromethyl)phenyl)acetamide] | excellent inhibitory effects against tumor in mice | – | without significant influence on mice weight | 17 nM |
